Results on 20 molecules are retold here after ChEMBL document CHEMBL4371002 (J Med Chem, 2018).

Each structure is given as a SMILES string. In brackets after ≈: the same amount, converted by molar mass.

Test system in the first data set: not listed separately
The data set is described as follows: physchem.
Settings: not given
One may read the pKa as the pH at which an ionisable group is half protonated. Higher therefore signals a weaker acid or stronger base. With `NCc1cc(F)c(O)c(F)c1`, the pKa was 7.12. Take `NCc1ccc(F)c(O)c1F`: the pKa is 9.81.

In a further data set the test system is Staphylococcus hominis. In words: microbe, parasite or virus in culture. Type of data set: functional. Conditions: IP8203.
The molecule `CC1=C\[C@@H](O)C[C@H](O)Cc2nc(co2)C(=O)N2CCC[C@@H]2C(=O)O[C@H](C(C)C)[C@H](C)/C=C/C(=O)NC\C=C\1` showed an MIC of 32 µg/mL (≈ 60.4 µM).

For the molecule `CC1=C\[C@@H](O)C[C@@H](O)Cc2nc(co2)C(=O)N2CCC[C@@H]2C(=O)O[C@H](C(C)C)[C@H](C)/C=C/C(=O)NC\C=C\1`, the MIC is 1 µg/mL (≈ 1.89 µM). Molecule `CC1=C\[C@@H](O)C[C@H](F)Cc2nc(co2)C(=O)N2CCC[C@@H]2C(=O)O[C@H](C(C)C)[C@H](C)/C=C/C(=O)NC\C=C\1` displayed an MIC of 8 µg/mL (≈ 15 µM). `CC1=C\[C@@H](O)C[C@@H](F)Cc2nc(co2)C(=O)N2CCC[C@@H]2C(=O)O[C@H](C(C)C)[C@H](C)/C=C/C(=O)NC\C=C\1` gave an MIC of 0.25 µg/mL (≈ 0.47 µM). Same read-out and setting: the value for `CC1=C\[C@@H](O)CC(=O)Cc2nc(co2)C(=O)N2CCC[C@@H]2C(=O)O[C@H](C(C)C)[C@H](C)/C=C/C(=O)NC\C=C\1` [VOLPRISTIN] was 4 µg/mL (≈ 7.58 µM).

The target in the next data set is D(2) dopamine receptor (Homo sapiens) (UniProt P14416).
D(2) dopamine receptor (Homo sapiens), sequence (P14416 whole entry): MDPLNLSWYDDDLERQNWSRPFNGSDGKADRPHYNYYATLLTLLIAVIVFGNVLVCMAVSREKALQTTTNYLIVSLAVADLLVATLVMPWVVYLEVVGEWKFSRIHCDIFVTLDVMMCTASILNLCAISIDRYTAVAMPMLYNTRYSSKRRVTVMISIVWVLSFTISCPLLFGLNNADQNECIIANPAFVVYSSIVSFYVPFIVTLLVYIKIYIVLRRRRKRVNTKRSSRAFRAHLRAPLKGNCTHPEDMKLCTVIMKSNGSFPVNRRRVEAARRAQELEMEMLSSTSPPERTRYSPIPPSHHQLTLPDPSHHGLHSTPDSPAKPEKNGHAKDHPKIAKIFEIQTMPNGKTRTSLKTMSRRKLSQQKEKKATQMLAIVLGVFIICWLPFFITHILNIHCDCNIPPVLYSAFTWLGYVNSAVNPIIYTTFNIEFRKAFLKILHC
Experiment: not given
Settings: not given
Molecule `Cc1nc2c(OCCNCc3ccccc3)cccc2[nH]1` gave a KiH of 4.4 nM. The molecule `FC(F)(F)c1nc2c3c(ccc2[nH]1)CCC(CNCc1ccccc1)O3` (configuration not stated) showed a KiH of 5.75 nM. The same measure, in the same setting: the figure for `FC(F)(F)c1nc2c(OCCNCc3ccccc3)cccc2[nH]1` is 0.18 nM. Same read-out and setting: the value for `c1ccc(CNCCOc2cccc3[nH]cnc23)cc1` was 9.8 nM; that for `Oc1nc2c(OCCNCc3ccccc3)cccc2[nH]1` was 0.18 nM.

`O=C1Cc2c(ccc3c2OC(CNCc2ccccc2)CC3)N1` (configuration not stated) displayed a KiH of 0.37 nM. `Oc1nc2c3c(ccc2[nH]1)CCC(CNCc1ccccc1)O3` (configuration not stated) yielded a KiH of 0.14 nM.

For a further data set, the target named is Bacterial 70S ribosome.
Experiment: not given
The format is subcellular, Bacteria.
Settings: not given
One may read the IC50 as the concentration that gives 50% inhibition. Turning to `CC1=C\[C@@H](O)C[C@H](O)Cc2nc(co2)C(=O)N2CCC[C@@H]2C(=O)O[C@H](C(C)C)[C@H](C)/C=C/C(=O)NC\C=C\1`, the IC50 stood at 6000 nM. That is a single-digit micromolar value. On to `CC1=C\[C@@H](O)C[C@@H](O)Cc2nc(co2)C(=O)N2CCC[C@@H]2C(=O)O[C@H](C(C)C)[C@H](C)/C=C/C(=O)NC\C=C\1`, for which half-maximal inhibition (IC50) required 50 nM. Still for that read-out and setting: the figure for `CC1=C\[C@@H](O)C[C@H](F)Cc2nc(co2)C(=O)N2CCC[C@@H]2C(=O)O[C@H](C(C)C)[C@H](C)/C=C/C(=O)NC\C=C\1` is 500 nM; for `CC1=C\[C@@H](O)C[C@@H](F)Cc2nc(co2)C(=O)N2CCC[C@@H]2C(=O)O[C@H](C(C)C)[C@H](C)/C=C/C(=O)NC\C=C\1` it is 60 nM. Take `CC1=C\[C@@H](O)CC(=O)Cc2nc(co2)C(=O)N2CCC[C@@H]2C(=O)O[C@H](C(C)C)[C@H](C)/C=C/C(=O)NC\C=C\1` [VOLPRISTIN]: the IC50 came out at 100 nM. Against the preceding molecule, the IC50 is about 1.7-fold higher.

Another data set deals with Plasmodium berghei. In words: microbe, parasite or virus in culture. Type of data set: functional, organism-based.
Settings: not given
As to `C[C@@H]1CC[C@H]2[C@@H](C)C(=C(F)F)O[C@@H]3O[C@@]4(C)CC[C@@H]1[C@]32OO4`, 20 nM corresponded to half-maximal inhibition (IC50). For orientation: IC90 means the concentration needed for an effect of 90%. Read a low IC90 as an effect from little substance. `CC1=C(C(F)(F)F)O[C@@H]2O[C@@]3(C)CC[C@H]4[C@H](C)CC[C@@H]1[C@@]24OO3` yielded a half-maximal inhibitory concentration (IC50) of 4.6 nM and an IC90 of 7.3 nM. As to `C[C@@H]1CC[C@H]2[C@@H](C)C(=O)O[C@@H]3O[C@@]4(C)CC[C@@H]1[C@]32OO4` [ARTEMISININ], it took 8.9 nM to reach half-maximal inhibition (IC50) and the IC90 is 14.5 nM.

Another data set has as its target T1, 5-hydroxytryptamine receptor 1A (Homo sapiens, UniProt P08908).
T1 sequence (P08908 whole entry): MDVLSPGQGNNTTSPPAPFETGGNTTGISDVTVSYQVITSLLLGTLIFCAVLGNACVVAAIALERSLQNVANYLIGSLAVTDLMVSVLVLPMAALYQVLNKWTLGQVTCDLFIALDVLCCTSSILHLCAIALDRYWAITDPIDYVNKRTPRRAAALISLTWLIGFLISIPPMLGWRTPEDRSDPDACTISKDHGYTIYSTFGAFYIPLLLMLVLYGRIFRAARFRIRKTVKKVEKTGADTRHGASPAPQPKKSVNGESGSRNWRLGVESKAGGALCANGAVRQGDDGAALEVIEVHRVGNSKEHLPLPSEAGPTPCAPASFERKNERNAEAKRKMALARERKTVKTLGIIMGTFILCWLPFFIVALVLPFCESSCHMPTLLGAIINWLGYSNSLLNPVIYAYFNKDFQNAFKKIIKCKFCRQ
Experiment: not given
Type of data set: functional, cell-based, CHO.
Settings: not given
On to `N#Cc1ccc2[nH]cc(CCCCN3CCN(c4ccc5c(c4)OCCO5)CC3)c2c1`, for which half-maximal inhibition (IC50) was put at 1 nM. As to `Fc1ccc2[nH]cc(CCCCN3CCN(c4ccc5c(c4)OCO5)CC3)c2c1`, the IC50 stood at 4 nM. On the same count and under the same terms, the value for `N#Cc1ccc2[nH]cc(CCCCN3CCN(c4ccc5c(c4)OCO5)CC3)c2c1` was 0.7 nM.
